This is an account of results in PubChem BioAssay (NCI).

Some test systems named below: 786-0 renal; BT-549 breast; HCT-15 colon; M14 melanoma; M19-MEL melanoma; MALME-3M melanoma; NCI-H226 lung; NCI-H460 lung; PC-3 prostate; SK-MEL-5 melanoma; XF 498 CNS.
Common to all, as to experiment: inhibition of tumour cell growth, NCI panel, 48 h

Each structure is given as a SMILES string.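 48-hour exposure; five concentrations; linearly interpolated endpoints. GI50: concentration for 50% inhibition of growth. Definition used: TGI = concentration required for complete inhibition of growth.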 Where a SMILES comes first, the peptide text is derived from it. [ ]: non-standard residue; d: D form.

As to `N=C1C=CC(=C(c2ccc(N)cc2)c2ccc(N)cc2)C=C1`, the TGI amounted to 12.9 µM in the experiment on 786-0 renal; 7.97 µM in the experiment on BT-549 breast; 53.3 µM in the experiment on HCT-15 colon; 15.8 µM with M14 melanoma; 16.8 µM in the experiment with M19-MEL melanoma; 13.3 µM with MALME-3M melanoma. The TGI in the experiment on NCI-H226 lung came to 18.2 µM; in the experiment with NCI-H460 lung, 36.9 µM; in the experiment on PC-3 prostate, 12.4 µM; with SK-MEL-5 melanoma, 9.5 µM; with XF 498 CNS it was 7.45 µM.

For the compound `Cc1cc(C)[n+]2c(c1)C=CC2`, the TGI was greater than 100 µM in the experiment with 786-0 renal; greater than 100 µM in the experiment with M14 melanoma; greater than 100 µM in the experiment with M19-MEL melanoma; 8.57 µM with MALME-3M melanoma; 60.8 µM with NCI-H226 lung; greater than 100 µM in the experiment with NCI-H460 lung. This compound also returned a TGI with SK-MEL-5 melanoma of 43.1 µM.

Take `Clc1ccc(C2SCc3nc4ccccc4n32)cc1` (stereo unspecified): the TGI in the experiment on HCT-15 colon was greater than 100 µM; in the experiment with M14 melanoma, 68.1 µM; in the experiment on M19-MEL melanoma, 54.3 µM; in the experiment with MALME-3M melanoma it was 36.7 µM; with NCI-H226 lung, 75.4 µM; with NCI-H460 lung it was 93.3 µM. The TGI with SK-MEL-5 melanoma turned out to be 23.3 µM; in the experiment on XF 498 CNS, 27.5 µM.

Consider `O=S(=O)(O)c1cc(S(=O)(=O)O)c2cc(N=Nc3ccc(N=Nc4ccc(/C=C/c5ccc(N=[N+]([O-])c6ccc(/C=C/c7ccc(N=Nc8ccc(N=Nc9ccc%10cc(S(=O)(=O)O)cc(S(=O)(=O)O)c%10c9)cc8)cc7S(=O)(=O)O)c(S(=O)(=O)O)c6)cc5S(=O)(=O)O)c(S(=O)(=O)O)c4)cc3)ccc2c1`, for which the TGI in the experiment with HCT-15 colon, with M19-MEL melanoma, in the experiment with MALME-3M melanoma, in the experiment with NCI-H226 lung, in the experiment with NCI-H460 lung and in the experiment with SK-MEL-5 melanoma was greater than 100 µM throughout. Moreover, the TGI in the experiment with XF 498 CNS was greater than 100 µM.

For `COCC(C#N)NC1CC(OC2CC(O)(C(=O)CO)Cc3c(O)c4c(c(O)c32)C(=O)c2c(OC)cccc2C4=O)OC(C)C1O` (stereo unspecified), the TGI came out at 1.77 µM in the experiment on 786-0 renal; 0.653 µM in the experiment on BT-549 breast; 12.8 µM with HCT-15 colon; 0.774 µM in the experiment with M14 melanoma; 0.22 µM with M19-MEL melanoma; 0.18 µM in the experiment with MALME-3M melanoma. Moreover, the TGI in the experiment with NCI-H226 lung came to 0.117 µM; in the experiment on NCI-H460 lung, 0.189 µM; in the experiment with PC-3 prostate, 1.2 µM; in the experiment with SK-MEL-5 melanoma, 0.154 µM; with XF 498 CNS it was 0.0678 µM.

Regarding `CC(=O)/C=C(/C)[O-].CC(=O)/C=C(/C)[O-].CC(=O)[CH-]C(C)=O.CC(=O)[CH-]C(C)=O.[Zr+4]`, the GI50 is greater than 100 µM with M14 melanoma, 12.7 µM in the experiment with MALME-3M melanoma, greater than 100 µM in the experiment on NCI-H460 lung and greater than 100 µM in the experiment on XF 498 CNS. The TGI in the experiment with M14 melanoma is greater than 100 µM; with MALME-3M melanoma, 32.5 µM; in the experiment with NCI-H460 lung, greater than 100 µM; in the experiment on XF 498 CNS, greater than 100 µM.

`CC(C)C[C@H](NC(=O)[C@H](CC(C)C)NC(=O)[C@@H](Cc1c[nH]c2ccccc12)NC(=O)[C@H](Cc1ccccc1)NC(=O)[C@@H](Cc1c[nH]c2ccccc12)NC(=O)[C@H](CCC(N)=O)NC(=O)[C@@H](CCC(N)=O)NC(=O)[C@@H]1CCCN1C(=O)[C@@H](CCCCN)NC(=O)[C@H]1CCCN1C(=O)[C@H](N)CCCN=C(N)N)C(N)=O` (H-[dR][dP][dK]P[dQ]Q[dW]F[dW]LL-NH2): the TGI was greater than 100 µM with HCT-15 colon; greater than 100 µM in the experiment on M19-MEL melanoma; greater than 31.6 µM in the experiment on MALME-3M melanoma; greater than 100 µM with NCI-H226 lung; greater than 100 µM in the experiment on NCI-H460 lung; greater than 100 µM in the experiment with SK-MEL-5 melanoma. Also, the TGI with XF 498 CNS was greater than 100 µM.

For `N#CC1=C(O)NC(O)=C(C#N)C1c1c(Cl)cccc1Cl`, the TGI with HCT-15 colon is 51.9 µM; in the experiment on M14 melanoma, greater than 100 µM; in the experiment on M19-MEL melanoma, greater than 100 µM; in the experiment with MALME-3M melanoma it was greater than 100 µM; in the experiment with NCI-H226 lung, 64.9 µM; in the experiment on NCI-H460 lung it was 61.5 µM. Further, the TGI in the experiment on SK-MEL-5 melanoma and in the experiment with XF 498 CNS was greater than 100 µM throughout.

On to `O=C1C(Cl)N(c2ccc([N+](=O)[O-])cc2)C1c1c[nH]c2ccccc12` (stereo unspecified), for which the TGI with M14 melanoma, with M19-MEL melanoma, in the experiment on MALME-3M melanoma, in the experiment with NCI-H460 lung, in the experiment on SK-MEL-5 melanoma and in the experiment on XF 498 CNS was greater than 100 µM in each case.

As for `N#Cc1sc2c(c1OC(=O)c1ccco1)c(=O)n(-c1ccccc1)c(=S)n2-c1ccccc1`, the TGI in the experiment with 786-0 renal was greater than 100 µM; in the experiment with BT-549 breast it was greater than 100 µM; with HCT-15 colon, 52.4 µM; in the experiment on M14 melanoma, 73.3 µM; in the experiment with MALME-3M melanoma, 58.2 µM; in the experiment on NCI-H226 lung, greater than 100 µM. For the same compound, the TGI in the experiment on NCI-H460 lung is greater than 100 µM; in the experiment with PC-3 prostate, greater than 100 µM; in the experiment on SK-MEL-5 melanoma, 33.7 µM.

As to `Cc1cc2nc3c(C#N)c(C)c(CCCl)c(Cl)n3c2cc1C`, the TGI was 3.69 µM in the experiment with 786-0 renal; 7.15 µM with BT-549 breast; 3.85 µM in the experiment on HCT-15 colon; 6.16 µM with M14 melanoma; 9.28 µM in the experiment with MALME-3M melanoma; 8.17 µM with NCI-H226 lung. Besides, the TGI is greater than 36.6 µM in the experiment on NCI-H460 lung, 12.4 µM in the experiment with PC-3 prostate and 8.82 µM with SK-MEL-5 melanoma.

For `N=C(N)SCc1nc(-c2ccc(Cl)cc2)no1`, the TGI is 29.3 µM with 786-0 renal; 50.6 µM with BT-549 breast; 55.9 µM in the experiment with HCT-15 colon; 45.6 µM in the experiment with M14 melanoma; 34.6 µM in the experiment on MALME-3M melanoma; greater than 100 µM in the experiment with NCI-H226 lung. In addition, the TGI was greater than 100 µM with NCI-H460 lung, 37.5 µM with PC-3 prostate and greater than 100 µM with SK-MEL-5 melanoma.

Take `COc1ccc(C2N(c3ccc(C)c(N=C=O)c3)C(=O)N3C(c4ccc(OC)cc4)N(c4ccc(C)c(N=C=O)c4)C(=O)N23)cc1` (stereo unspecified): the TGI in the experiment on 786-0 renal is greater than 100 µM; in the experiment with BT-549 breast, greater than 100 µM; with HCT-15 colon it was greater than 100 µM; with M14 melanoma, greater than 100 µM; with MALME-3M melanoma, 96.1 µM; in the experiment on NCI-H226 lung, greater than 100 µM. Besides, the TGI in the experiment with NCI-H460 lung, with PC-3 prostate and with SK-MEL-5 melanoma was greater than 100 µM in each case.

Regarding `CCCCCc1cc2cc3c(c(O)c2c(=O)[nH]1)C1(CCC3)C(=O)c2c(O)ccc(O)c2C1=O`, the TGI in the experiment with 786-0 renal, in the experiment with BT-549 breast, in the experiment with HCT-15 colon, with M14 melanoma, in the experiment with MALME-3M melanoma and in the experiment on NCI-H226 lung was greater than 100 µM each time. Moreover, the TGI in the experiment on NCI-H460 lung, in the experiment with PC-3 prostate and with SK-MEL-5 melanoma was greater than 100 µM throughout.

Turning to `O=C1Sc2ccccc2C(=O)N2CCSC12` (stereo unspecified), the TGI in the experiment with HCT-15 colon, in the experiment on M14 melanoma, in the experiment with M19-MEL melanoma, in the experiment on MALME-3M melanoma, in the experiment with NCI-H460 lung and in the experiment with SK-MEL-5 melanoma was greater than 100 µM each time.

On to `COC(=O)C1=C(C)NC(C)=C(C(=O)OC)C1c1cccc(/[N+]([O-])=C/c2ccccc2)c1`, for which the TGI is 31.5 µM in the experiment with 786-0 renal; 30.3 µM in the experiment with BT-549 breast; 44.9 µM with HCT-15 colon; 35 µM with M14 melanoma; 29.9 µM in the experiment on MALME-3M melanoma; greater than 100 µM in the experiment on NCI-H226 lung. Further, the TGI in the experiment on NCI-H460 lung, in the experiment on PC-3 prostate and in the experiment with SK-MEL-5 melanoma was greater than 100 µM each time.

With `O=[N+]([O-])c1c(O)c2nonc2c2nn(-c3ccccc3)nc12`, the TGI was greater than 100 µM in the experiment on 786-0 renal; greater than 100 µM with BT-549 breast; greater than 100 µM with HCT-15 colon; greater than 100 µM in the experiment with M14 melanoma; greater than 100 µM in the experiment on MALME-3M melanoma; 79.1 µM in the experiment on NCI-H226 lung. Besides, the TGI in the experiment with NCI-H460 lung, with PC-3 prostate and with SK-MEL-5 melanoma was greater than 100 µM throughout.

As for `Cc1cnc2c(c1)C(=O)N(c1ccc(Oc3ccccc3)cc1)S2(=O)=O`, the TGI with 786-0 renal, in the experiment on BT-549 breast, with HCT-15 colon, with M14 melanoma, in the experiment on MALME-3M melanoma and in the experiment on NCI-H226 lung was greater than 100 µM throughout. For the same compound, the TGI with NCI-H460 lung, with PC-3 prostate and in the experiment on SK-MEL-5 melanoma was greater than 100 µM in each case.

Take `CCSC12OC3(CCCCCN3C1=O)C1C(=O)N(c3ccccc3)C(=O)C12` (stereo unspecified): the TGI in the experiment on 786-0 renal, in the experiment on BT-549 breast, with HCT-15 colon, in the experiment with M14 melanoma, in the experiment with MALME-3M melanoma and with NCI-H226 lung was greater than 100 µM in each case. The TGI in the experiment on NCI-H460 lung, in the experiment with PC-3 prostate and in the experiment on SK-MEL-5 melanoma was greater than 100 µM in each case.

As for `COc1cc2nc(-c3cccs3)nc(N3CCN(c4ccccc4)CC3)c2cc1OC`, the TGI in the experiment on 786-0 renal, with BT-549 breast, in the experiment with HCT-15 colon, with M14 melanoma, with MALME-3M melanoma and with NCI-H226 lung was greater than 100 µM each time. Moreover, the TGI in the experiment on NCI-H460 lung, in the experiment on PC-3 prostate and with SK-MEL-5 melanoma was greater than 100 µM each time.

For `CCOC(=O)Cc1[nH]c(C(=O)c2ccccc2)cc1C(=O)c1ccccc1`, the TGI with 786-0 renal was greater than 10 µM; in the experiment with BT-549 breast, 38.7 µM; in the experiment with HCT-15 colon, greater than 100 µM; in the experiment on M14 melanoma it was greater than 100 µM; in the experiment with MALME-3M melanoma, greater than 100 µM; in the experiment with NCI-H226 lung it was 65.8 µM. The TGI with NCI-H460 lung is greater than 100 µM; with PC-3 prostate, greater than 10 µM; in the experiment with SK-MEL-5 melanoma, greater than 100 µM.

Regarding `CC1(C)CCCCCC(O)C(O)CCC(C)(C)C1=O` (stereo unspecified), the TGI in the experiment on 786-0 renal, in the experiment with BT-549 breast, in the experiment with HCT-15 colon, with M14 melanoma, in the experiment with MALME-3M melanoma and in the experiment with NCI-H226 lung was greater than 100 µM throughout. For the same compound, the TGI in the experiment on NCI-H460 lung, in the experiment with PC-3 prostate and in the experiment with SK-MEL-5 melanoma was greater than 100 µM in each case.

Regarding `Cc1ccc(C)n1-c1ccccc1C1C=Cn2c(=O)oc3c(OC(C)C)c(OC(C)C)c(O)c1c32` (stereo unspecified), the TGI with 786-0 renal is greater than 100 µM; in the experiment with BT-549 breast, greater than 100 µM; with HCT-15 colon, greater than 100 µM; in the experiment with M14 melanoma, greater than 100 µM; with MALME-3M melanoma, greater than 100 µM; in the experiment on NCI-H226 lung it was 36.1 µM. Besides, the TGI was greater than 100 µM with NCI-H460 lung, 93.9 µM with PC-3 prostate and greater than 100 µM in the experiment on SK-MEL-5 melanoma.
